Measured values reported in patent publication US7556957B2, “Coronavirus-like particles comprising functionally deleted genomes” (Stichting voor de Technische Wetenschappen, priority 2001, dated 2009).
Where no end group is shown, it is not given here.

Columns and labels:
[1] = test system: MHV-EFLM infection of LR7 cells; assay: Virus-cell entry inhibition assay with luciferase-expressing MHV-EFLM; type: cell-based, mouse hepatitis virus (MHV) strain A59; conditions: peptide concentration 50 μM
Experimental: FIG. 11: Inhibition of MHV infection by the HR2 peptide. LR7 cells were inoculated with the virus MHV-EFLM in the presence of different concentrations of HR2 peptide or, as a control, a peptide corresponding to amino acids 1003-1048 of the viral S protein. After one hour of inoculation, cells were washed and incubated further in the absence of peptide. To evaluate the success of the infection, cells were analyzed at 4 hours post-infection for luciferase expression. In the figure luciferase activity is plotted against the different peptide concentrations used.
(§1) The potency of the HR2 peptide in inhibiting viral infection was determined using the recombinant MHV-EFLM expressing the firefly luciferase. Confluent monolayers of LR7 cells in 96-well plates were inoculated at 37° C. in DMEM at a multiplicity of infection of 5 for 1 hour in the presence of varying concentrations of peptide ranging from 0.4-50 μM. After 1 hour, cells were washed with DMEM and medium was replaced by peptide-free DMEM. At 5 hours post-infection cells were lysed for 15 minutes at RT in 50 μl Lysis buffer, according to the manufacturer's protocol (Luciferase Assay System, Promega). Upon mixing of 10 μl cell lysate with 40 μl substrate, luciferase activity was measured immediately using a Wallace Betaluminometer. […]

[2] = test system: MHV-A59 spike mediated cell-cell fusion in LR7 cells; assay: Cell-cell fusion inhibition plaque assay; type: cell-based, mouse hepatitis virus (MHV) strain A59
Experimental: FIG. 12: Inhibition of cell-cell fusion by HR2 peptide. After inoculation of parallel cultures of LR7, cells with MHV-A59 cells were overlaid with agar medium containing different concentrations of HR2 peptide and plaques were counted the following day.
as §1

GPIEGRDLSLDFEKLNVTLLDLTYEMNRIQDAIKKLNESYINLKE [HR2 peptide]
inhibition of viral infection (entry) [1]: inhibited virtually completely
formation of plaques (cell-cell fusion) ([2]; 0.08 μM HR2 peptide in agar overlay): only tiny plaques
formation of plaques (cell-cell fusion) ([2]; HR2 peptide in agar overlay at concentrations of up to 0.4 μM): completely abolished
